Experimental data taken from patent US12358904B2, “Inhibitors of TYK2” (Atomwise Inc., priority 2023, dated 2025).
pIC50: −log10 of the molar value.

What was measured:
TYK2-JH2 = target: T1, TYK2-JH2 (Homo sapiens, UniProt P29597); assay: TYK2-JH2 HTRF binding assay (ligand efficiency); settings: calculated from IC50 of the TYK-JH2 binding assay (Equation 1)
T1 construct: TYK JH2 enzyme mix (ChemPartnec CP20210818A-BV); purchased ChemPartner CP20210818A-BV
Procedure: The following example describes the TYK2-JH2 HTRF binding assay used to determine the ligand efficiency of the TYK2 inhibitors.
To calculate ligand efficiency, Equation 1 is applied:
[formula] in which IC50 comes from the binding assay used to determine compound potency.
TYK JH2 enzyme mix (ChemPartnec CP20210818A-BV), tracer (ChemPartnec CP-0029472-051) and mAb Anti-6HIS Tb cryptate Gold (Cisbio: Cat No. 61H12TLA) mix were prepared in assay buffer (10 mM MgCl2, 20 mM HEPES pH 7.5, 0.01% Triton X-100, 1 mM DTT). Compounds diluted in DMSO (Final Concentrations 0.1 to 0.000005 [μM]) and enzyme mix (0.5 nM Final Concentration) were added to 384 well plates, briefly centrifuged and incubated at room temperature for 10 minutes. After incubation, tracer mix (Tracer-35 nM final concentration); (Mab Anti-6HIS Tb cryptate Gold-0.5× final)) was added, briefly centrifuged then incubate at room temperature 60 minutes. After incubation, plates were read by Envision TR-FRET (Ex340/Em495/520) protocol (PerkinElmer-Envision 2104 multilabel plate reader).

IL-12/pSTAT4 = assay: IL-12 induced pSTAT4 assay in NK-92 cells; format: cell-based; settings: Homo sapiens, NK92, IL-12 stimulation, read-out: Cellular potency (IL-12/pSTAT4)
Procedure: The following example describes the IL-12 induced pSTAT4 assay used to determine the cellular potency (IL-12/pSTAT4) of the TYK2 inhibitors.
NK-92 cells (human natural killer lymphoma cell line) were cultured in MEM α, nucleosides (Life Technologies, 22571020) 12.5% heat inactivated FBS (Dominique Dutscher, S1810), 12.5% heat inactivated Horse serum (Life Technologies, 26050088) and 1% Penicillin-Streptomycin (Life Technologies, 15140122), 5 ng/mL human IL-2 (R&D systems, 202-II/CF), 0.2 mM inositol (Sigma, PHR1351 lot LRAC4118), 0.1 mM β-mercaptoethanol (Life Technologies, 31350010), and 0.02 mM folic acid (Sigma, F8758).
NK-92 cells were starved overnight in starvation medium (Opti-MEM (ThermoFisher, 11058-021), 10% charcoal stripped FBS (ThermoFisher 12676-029), and 1% Penicillin (100U/ml)-Streptomycin (100 μg/ml) (ThermoFisher, ref 15140122)), then plated in a 96-well tissue culture plate (20K cells/well) prior to pre-incubation with test compounds (Final Concentration [nM] 1000 to 0.05) for 30 minutes at 37° C. Cells were stimulated with IL-12 (Final Concentration l0 ng/ml) for 30 minutes at 37° C., and terminated by addition of lysis buffer (MSD K150PAD-2). pSTAT4 (Tyr693) was detected using the Mesa Scale Discovery platform (MSD K150PAD-2), according to manufacturer's instruction. Briefly, cell lysates were added to pre-blocked plates and incubated for 1 hour at room temperature. Plates were washed and incubated with detection antibody for 1 hour at room temperature. Plates were washed and Read Buffer was added prior to measurement on the MSD (1300 MSD Quickplex SQ 120).

T1 sequence (P29597 589-875 limits assumed): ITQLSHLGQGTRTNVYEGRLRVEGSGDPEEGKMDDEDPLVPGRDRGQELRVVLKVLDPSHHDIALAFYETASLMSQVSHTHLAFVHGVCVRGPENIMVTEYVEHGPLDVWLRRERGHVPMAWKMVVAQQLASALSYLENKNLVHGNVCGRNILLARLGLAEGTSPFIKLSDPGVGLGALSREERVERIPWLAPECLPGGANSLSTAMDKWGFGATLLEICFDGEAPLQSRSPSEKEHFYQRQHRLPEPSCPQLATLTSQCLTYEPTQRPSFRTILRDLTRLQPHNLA

Row | SMILES | Ligand Efficiency (TYK2-JH2) | pIC50 (IL-12/pSTAT4)
1 | Cn1ccc(Nc2cc(Nc3ccccc3S(C)(=O)=O)ncn2)n1 [Compound 66, N^4-(1-methyl-1H-pyrazol-3-yl)-N^6-(2-(methylsulfonyl)phenyl) pyrimidine-4,6-diamine] | ††† (†††: >0.39) | < 6.00
2 | CS(=O)(=O)c1cccnc1Nc1cc(Nc2ccc([C@@H](N3CC4(COC4)C3)C(F)(F)F)cn2)ncn1 [Compound 16, I-N^4-(3-(methylsulfonyl)98yridine-2-yl)-N^6-(5-(2,2,2-trifluoro-1-(2-oxa-6-azaspiro[3.3]heptan-6-yl)ethyl)98yridine-2-yl)pyrimidine-4,6-diamine] | †† (††: 0.37-0.39) | > 7.00
3 | CS(=O)(=O)c1ccccc1Nc1cc(Nc2ccc(C(=O)NC3COC3)cn2)ncn1 [Compound 79, 6-((6-((2-(methylsulfonyl)phenyl)amino)pyrimidin-4-yl)amino)-N-(oxetan-3-yl)nicotinamide] | †† (††: 0.37-0.39) | < 6.00
4 | CS(=O)(=O)c1ccccc1Nc1cc(Nc2ccc(C(=O)NC3CCOC3)cn2)ncn1 (stereo not drawn) [Compound 43, 6-(6-(2-(methylsulfonyl)phenylamino)pyrimidin-4-ylamino)-N-(tetrahydrofuran-3-yl)nicotinamide] | †† (††: 0.37-0.39) | < 6.00
5 | COc1ccc(Nc2cc(NC(=O)C3CC3)ncn2)c(C(N)=O)c1 [Compound 70, 2-((6-(cyclopropanecarboxamido)pyrimidin-4-yl)amino)-5-methoxy benzamide] | ††† (†††: >0.39) | < 6.00
6 | C[C@@H](c1ccc(Nc2cc(Nc3ncccc3S(C)(=O)=O)ncn2)nc1)N1CC2(CCOC2)C1 [Compound 32, (S)—N^4-(5-(1-(6-oxa-2-azaspiro[3.4]octan-2-yl)ethyl)114yridine-2-yl)-N^6-(3-(methylsulfonyl)114yridine-2-yl)pyrimidine-4,6-diamine] | ††† (†††: >0.39) | > 7.00
7 | COc1ccnc(Nc2cc(Nc3ccc(C(C)N4CC5(COC5)C4)cn3)ncn2)c1S(C)(=O)=O (stereo not drawn) [Compound 76, N^4-(5-(1-(2-oxa-6-azaspiro[3.3]heptan-6-yl)ethyl)170yridine-2-yl)-N^6-(4-methoxy-3-(methylsulfonyl)170yridine-2-yl)pyrimidine-4,6-diamine] | † (†: <0.37) | 6.00 to 7.00
8 | C[C@H]1CN(C)CCN1c1ccc(Nc2cc(Nc3ncccc3S(C)(=O)=O)ncn2)nc1 [Compound 20, (S)—N^4-(5-(2,4-dimethylpiperazin-1-yl)101yridine-2-yl)-N^6-(3-(methylsulfonyl)101yridine-2-yl)pyrimidine-4,6-diamine] | ††† (†††: >0.39) | > 7.00
9 | Cc1cccc(Nc2cc(Nc3cccnc3C(N)=O)ncn2)n1 [Compound 50, 3-((6-((6-methylpyridin-2-yl)amino)pyrimidin-4-yl)amino) picolinamide] | ††† (†††: >0.39) | 6.00 to 7.00
10 | Cc1cccc(Nc2cc(Nc3ccncc3C(N)=O)ncn2)n1 [Compound 51, 4-((6-((6-methylpyridin-2-yl)amino)pyrimidin-4-yl)amino) nicotinamide] | ††† (†††: >0.39) | < 6.00
11 | Cc1cc(Nc2cc(Nc3ncccc3S(C)(=O)=O)ncn2)nnc1C(C)N1CC2(COC2)C1 (stereo not drawn) [Compound 77, N^4-(6-(1-(2-oxa-6-azaspiro[3.3]heptan-6-yl)ethyl)-5-methylpyri 172yridi-3-yl)-N^6-(3-(methylsulfonyl)172yridine-2-yl)pyrimidine-4,6-diamine] | †† (††: 0.37-0.39) | < 6.00
12 | Cc1cccc(Nc2cc(Nc3cnccc3C(N)=O)ncn2)n1 [Compound 61, 3-((6-((6-methylpyridin-2-yl)amino)pyrimidin-4-yl)amino) isonicotinamide] | ††† (†††: >0.39) | 6.00 to 7.00
13 | Cc1ccnc(Nc2cc(Nc3ccccc3C(N)=O)ncn2)n1 [Compound 58, 2-(6-(4-methylpyrimidin-2-ylamino)pyrimidin-4-ylamino)benzamide] | ††† (†††: >0.39) | < 6.00
14 | C[C@@H](c1ccc(Nc2cc(Nc3ncccc3S(C)(=O)=O)ncn2)nc1)N1CCCC12CCOCC2 [Compound 29, (S)—N^4-(5-(1-(8-oxa-1-azaspiro[4.5]decan-1-yl)ethyl)111yridine-2-yl)-N^6-(3-(methylsulfonyl)111yridine-2-yl)pyrimidine-4,6-diamine] | †† (††: 0.37-0.39) | > 7.00
15 | Cc1cccc(Nc2cc(Nc3cccnc3S(C)(=O)=O)ncn2)n1 [Compound 59, N^4-(6-methylpyridin-2-yl)-N^6-(2-(methylsulfonyl)149yridine-3-yl) pyrimidine-4,6-diamine] | ††† (†††: >0.39) | < 6.00
16 | Cc1nccc(Nc2cc(Nc3ccccc3C(N)=O)ncn2)n1 [Compound 48, 2-((6-((2-methylpyrimidin-4-yl)amino)pyrimidin-4-yl)amino) benzamide] | ††† (†††: >0.39) | 6.00 to 7.00
17 | CS(=O)(=O)c1cccnc1Nc1cc(Nc2ccc(N3CCC4(CCO4)CC3)cn2)ncn1 [Compound 24, N^4-(5-(1-oxa-7-azaspiro[3.5]nonan-7-yl)104yridine-2-yl)-N^6-(3-(methylsulfonyl)104yridine-2-yl)pyrimidine-4,6-diamine] | †† (††: 0.37-0.39) | > 7.00
18 | CS(=O)(=O)c1ccccc1Nc1cc(Nc2ccc(C3(NC4COC4)CC3)cn2)ncn1 [Compound 41, N^4-(2-(methylsulfonyl)phenyl)-N^6-(5-(1-(oxetan-3-ylamino)cyclopropyl)130yridine-2-yl)pyrimidine-4,6-diamine] | †† (††: 0.37-0.39) | 6.00 to 7.00
19 | C[C@H](NC1COC1)c1ccc(Nc2cc(Nc3ccccc3S(C)(=O)=O)ncn2)nc1 [Compound 40, I-N^4-(2-(methylsulfonyl)phenyl)-N^6-(5-(1-(oxetan-3-ylamino)ethyl)128yridine-2-yl)pyrimidine-4,6-diamine] | ††† (†††: >0.39) | 6.00 to 7.00
20 | CC1(CNc2ccc(Nc3cc(Nc4ncccc4S(C)(=O)=O)ncn3)nc2)COC1 [Compound 36, N^4-(5-(((3-methyloxetan-3-yl)methyl)amino)123yridine-2-yl)-N^6-(3-(methylsulfonyl)123yridine-2-yl)pyrimidine-4,6-diamine] | ††† (†††: >0.39) | > 7.00
21 | CC(C)(c1ccc(Nc2cc(Nc3ncccc3S(C)(=O)=O)ncn2)nc1)N1CC2(CCOCC2)C1 [Compound 33, N^4-(5-(2-(7-oxa-2-azaspiro[3.5]nonan-2-yl)propan-2-yl)118yridine-2-yl)-N^6-(3-(methylsulfonyl)118yridine-2-yl)pyrimidine-4,6-diamine] | †† (††: 0.37-0.39) | > 7.00
22 | CS(=O)(=O)c1cccnc1Nc1cc(Nc2ccc(C(=O)NC3CC(F)(F)C3)cn2)ncn1 [Compound 38, N-(3,3-difluorocyclobutyl)-6-(6-(3-(methylsulfonyl)pyridine-2-ylamino)pyrimidin-4-ylamino)nicotinamide] | ††† (†††: >0.39) | > 7.00
23 | C[C@@H](c1ccc(Nc2cc(Nc3ncccc3S(C)(=O)=O)ncn2)nc1)N1CCCC1 [Compound 15, I-N^4-(3-(methylsulfonyl)97yridine-2-yl)-N^6-(5-(1-(97yridine9797e-1-yl)ethyl)97yridine-2-yl)pyrimidine-4,6-diamine] | ††† (†††: >0.39) | > 7.00
24 | Cn1cc(-c2ccnc(Nc3cc(Nc4ccc(NC5(C)COC5)cn4)ncn3)c2S(C)(=O)=O)cn1 [Compound 72, N^4-(4-(1-methyl-1H-pyrazol-4-yl)-3-(methylsulfonyl)164yridine-2-yl)-N^6-(5-(3-methyloxetan-3-ylamino)164yridine-2-yl)pyrimidine-4,6-diamine] | † (†: <0.37) | < 6.00
